Assay results as given in PMC11071266, “The putative proton-coupled organic cation antiporter is involved in uptake of triptans into human brain capillary endothelial cells” (Fluids and Barriers of the CNS, 2024).
“And” between values parts separate entries of the source, which are not always exact repeats. Identical values can stand only once. “Also recorded” adds a separate entry of the source. Like-named read-outs stand apart in the source and are kept apart here.

Experiments:
[1] = system: H^+/OC antiporter; assay: Concentration-dependent cellular uptake into hCMEC/D3 cells (Michaelis-Menten kinetics); assay type: cell-based, human; details: for Concentration-dependent uptake (saturability): hCMEC/D3 cells, tested concentration range; for Association with H^+/OC antiporter: summary of uptake and inhibition studies in hCMEC/D3 cells; for Apparent Km / Jmax / Km: uptake into hCMEC/D3 cells; for Km: read-out: Apparent Km
Description: (§1) The immortalized human cerebral microvascular endothelial cell line (hCMEC/D3) was maintained in T75-flasks coated with collagen type I from calf skin (C9791, 18.7 μg/mL) and cultured in EBM®-2 medium (Lonza, Basel, Schweiz) supplemented with 5% (v/v) fetal bovine serum (FBS, 10270, Life Technologies, CA, USA or SH3008803, ThermoFisher Scientific, MA, USA), 100 U/mL penicillin and 100 μg/ml streptomycin, 1 ng/mL human basic fibroblast growth factor (bFGF), 1.4 μM hydrocortisone, 1% (v/v) chemically defined lipid concentrate (ThermoFisher Scientific, MA, USA), 10 mM N-2-hydroxyethylpiperazine-N-2-ethane sulfonic acid (HEPES) and 5 μg/mL ascorbic acid (5% CO2, 37 °C). […] For experiments, cells were seeded into 24-well plates (6.7·10^4 cells/cm^2) and cultured for four continuous days. The cells were used for experiments between passage 3–31.
(§2) The cells were equilibrated in hHBSS with or without inhibitor for 15 min (37 °C, 90 rpm). The compound of interest was spiked into the hHBSS followed by incubation for a designated time. The timeframe of the initial uptake rate was validated into hCMEC/D3 cells (Fig. 1 and Additional file 1). The experiment was terminated by washing three times with ice-cold HBSS supplemented with 0.0375% (v/v) sodium bicarbonate.
To assess the concentration-dependent uptake, the uptake flux was fitted to the Michaelis–Menten equation, Eq. 1.1 Jss=Jmax[S]/Km+[S] where Jss represents flux under steady state, Jmax is the maximal flux, [S] is the substrate concentration, and Km is the Michaelis–Menten constant.
The hCMEC/D3 cells were used for concentration-dependent uptake studies between passage 21–23 (pyrilamine), 11–13 (oxycodone), 12–14 (almotriptan), 16–18 (eletriptan), and 12–14 (sumatriptan).
(§3) The cells were permeabilized using 50% (v/v) acetonitrile (HPLC LC–MS grade, VWR International S.A.S, Soeborg, Denmark) in ultrapure water (ELGA, Buckinghamshire, England) for 10 min at room temperature. Thereafter, the cells were scraped off the bottom of the wells and transferred to HPLC vials. Samples from bidirectional transport experiments were transferred directly into HPLC vials. All samples were stored at – 18 °C for later analysis. Calibration curves with standards in the range of 1 or 5–1000 ng/mL were dissolved in 50% (v/v) acetonitrile in ultrapure water (ELGA, Buckinghamshire, England), or in hHBSS(-) for analysis of bidirectional transport samples.
(§4) Liquid chromatography tandem mass spectrometry (LC–MS/MS) were performed using electrospray ionization in positive mode on a micromass Quattro micro™ API tandem quadrupole mass spectrometer (Waters, MA, USA) or an Ultivo triple quadrupole mass spectrometer (Agilent Technologies, CA, USA) coupled to Agilent HPLC system 1100 Series or 1260 Series (Agilent Technologies, CA, USA California), respectively. Applied columns were an InfinityLab Poroshell 120 EC-C18 (3.0 × 50 mm; 2.7 micron, Agilent Technologies, CA, USA) or a Kinetex 2.6 μm XB-C18 (100 Å, 100 × 4.6 mm, Phenomenex Inc., CA, USA). An overview of applied HPLC and MS/MS parameters can be found in Additional file 2 and Additional file 3, respectively. The data acquisition software was MassLynx (V4.1, Waters, MA, USA).
The protein content of hCMEC/D3 cells was determined for normalization purposes. Cells were washed with ice-cold phosphate buffered saline following cell lysis in cell extraction buffer (FNN0011, Thermo Fisher Scientific, MA, USA) supplemented with 1 × cOmplete™ Protease Inhibitor Cocktail (04693116001, Roche, Basel, Schweiz), 1 mM phenylmethylsulfonyl fluoride, and […] for 30 min on ice.

[2] = system: H^+/OC antiporter; assay: Cellular uptake into hCMEC/D3 cells after intra- and extracellular pH manipulation; assay type: cell-based, human; details: for Cellular uptake after intracellular alkalization: acute exposure to 30 mM NH4Cl vs control pH 7.4; for Cellular uptake at extracellular acidification: extracellular pH 6.8 vs pH 7.4; for Cellular uptake at extracellular alkalization: extracellular pH 8.2 vs pH 7.4; for Proton-gradient dependence of uptake: hCMEC/D3 cells; for Cellular uptake after intracellular acidification: preexposure to 30 mM NH4Cl followed by media change vs control
[3] = system: H^+/OC antiporter; assay: Cellular uptake into hCMEC/D3 cells in absence or presence of pyrilamine or oxycodone; assay type: cell-based, human; details: for Inhibition by oxycodone (of the compound's uptake) / Inhibition by pyrilamine (of the compound's uptake): triptan 50 µM, asterisks = P level; for Inhibition by oxycodone (of the compound's uptake): 500 µM oxycodone; for Inhibition by pyrilamine (of the compound's uptake): 500 µM pyrilamine
Description: as §2
The hCMEC/D3 cells were used for time-dependent uptake studies between passage 3–5 (pyrilamine), 7–9 (oxycodone), 6–8 (almotriptan), and 24–31 (eletriptan).
The hCMEC/D3 cells were used for uptake studies of almotriptan, eletriptan, and sumatriptan in the presence of pyrilamine and oxycodone between passage 21–23.
as §3, §4

[4] = system: H^+/OC antiporter; assay: Inhibition of [^3H]-pyrilamine uptake into hCMEC/D3 cells; assay type: cell-based, human
Description: as §1, §2
The inhibitory constant at 50% inhibition (IC50) was determined by fitting the uptake flux (Jss) as function of the logarithmic inhibitor concentration to Eq. 2.2 Jss=Jmin+(Jmax-Jmin)/1+10^logIC50-InH where [I] is the inhibitor concentration, nH is the Hill coefficient.
The hCMEC/D3 cells were used for [^3H]-pyrilamine inhibition studies between passage 3–6 (pyrilamine, oxycodone), 16–18 (almotriptan), 7–13 (eletriptan), 25–27 (frovatriptan), 3–8 (naratriptan), 16–18 (rizatriptan), 12–14 (sumatriptan), and 14–16 (zolmitriptan).
The cells were permeabilized using 0.1% (v/v) Triton X-100 in ultrapure water (ELGA, Buckinghamshire, England) for 10 min at room temperature. Thereafter, the cells were scraped off the bottom of the wells, transferred to scintillation vials, and mixed with 2 mL of Ultima Gold 241 TM (Perkin Elmer, MA, USA). The samples were analyzed using a Tri-Carb 2910 TR Liquid Scintillation Analyzer (Perkin Elmer, MA, USA).

[5] = Physicochemical properties extracted from databases
Description: Triptans are a relatively homogeneous group of drug compounds with similar physicochemical properties, including molecular weights < 400 g/mol and a low to moderate lipophilicity (cLogD values ranging from − 2.1–0.18). […] As a consequence, it is unlikely that triptans cross the brain microvascular endothelium through passive diffusion to a clinically relevant extent. Table 1 summarizes structures and physicochemical properties of the triptans, as well as oxycodone and pyrilamine, which are two prototypical H^+/OC antiporter substrates included in this study.

[6] = target: P-gp (Homo sapiens, UniProt P08183); parameters: expressed in transfected cells; host or cells: IPEC-J2 (porcine ileum epithelial cell line); method as in PMID 12438524; details: MDR1-MDCKII cell line; cited from earlier work
Chain of P-gp (Homo sapiens, UniProt P08183) (P08183 whole entry): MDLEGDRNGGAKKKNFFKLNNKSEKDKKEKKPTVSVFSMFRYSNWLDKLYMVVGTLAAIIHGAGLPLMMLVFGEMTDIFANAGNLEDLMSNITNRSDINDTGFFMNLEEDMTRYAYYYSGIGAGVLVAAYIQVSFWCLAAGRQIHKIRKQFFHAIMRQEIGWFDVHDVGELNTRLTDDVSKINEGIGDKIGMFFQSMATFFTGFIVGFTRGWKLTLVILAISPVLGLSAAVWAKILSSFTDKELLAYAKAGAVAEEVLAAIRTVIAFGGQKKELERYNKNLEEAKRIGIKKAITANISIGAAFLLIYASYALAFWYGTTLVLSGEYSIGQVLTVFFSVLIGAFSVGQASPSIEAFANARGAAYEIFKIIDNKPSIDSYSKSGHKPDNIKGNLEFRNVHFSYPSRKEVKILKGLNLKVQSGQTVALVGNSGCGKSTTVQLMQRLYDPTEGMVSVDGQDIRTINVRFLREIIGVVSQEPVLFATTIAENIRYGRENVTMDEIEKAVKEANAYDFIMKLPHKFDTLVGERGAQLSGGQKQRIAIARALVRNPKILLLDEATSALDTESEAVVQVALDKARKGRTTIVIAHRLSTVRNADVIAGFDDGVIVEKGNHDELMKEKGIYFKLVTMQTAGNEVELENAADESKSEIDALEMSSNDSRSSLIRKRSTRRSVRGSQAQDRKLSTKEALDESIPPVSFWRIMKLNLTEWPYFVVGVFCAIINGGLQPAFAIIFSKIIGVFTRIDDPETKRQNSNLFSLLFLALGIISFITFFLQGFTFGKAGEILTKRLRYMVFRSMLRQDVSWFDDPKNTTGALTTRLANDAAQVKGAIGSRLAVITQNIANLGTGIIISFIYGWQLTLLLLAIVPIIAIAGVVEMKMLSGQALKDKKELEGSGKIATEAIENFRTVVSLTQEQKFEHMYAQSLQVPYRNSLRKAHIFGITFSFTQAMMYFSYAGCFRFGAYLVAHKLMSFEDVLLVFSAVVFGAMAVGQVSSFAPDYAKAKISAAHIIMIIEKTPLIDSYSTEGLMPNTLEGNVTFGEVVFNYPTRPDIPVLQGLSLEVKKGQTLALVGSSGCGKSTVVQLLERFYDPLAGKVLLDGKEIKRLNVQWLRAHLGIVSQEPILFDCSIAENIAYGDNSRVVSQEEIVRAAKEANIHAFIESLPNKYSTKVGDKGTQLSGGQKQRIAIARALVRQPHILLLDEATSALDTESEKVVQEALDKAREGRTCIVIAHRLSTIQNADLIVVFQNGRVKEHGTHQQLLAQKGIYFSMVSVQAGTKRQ

[7] = system: H^+/OC antiporter; parameters: method as in PMID 35955563; details: trans-stimulation in hCMEC/D3 cells; cited from earlier work
[8] = system: organic cation transporter 1 (OCT1); parameters: method as in PMID 35955563; details: cited from earlier work
[9] = cited from earlier work; for Strongest basic pKa: extracted from DrugBank
[10] = system: P-gp; parameters: method as in PMID 12814962; details: brain Kp in wild type and mdr1a knockout mice; cited from earlier work
[11] = read-out: Apparent IC50 on [^3H]-pyrilamine uptake, [^3H]-pyrilamine 1 µCi/mL, 48 nM
[12] = [^3H]-pyrilamine 1 µCi/mL, 48 nM, read-out: Apparent IC50 on [^3H]-pyrilamine uptake

CNS(=O)(=O)Cc1ccc2[nH]cc(CCN(C)C)c2c1 [Sumatriptan]
Concentration-dependent uptake (saturability) [1]: linear increase as function of increasing concentrations | Association with H^+/OC antiporter [1]: (substrate) very poor inhibitor | Apparent Km [1]: not saturable (in tested range) | Cellular uptake after intracellular alkalization [2]: decreased | Cellular uptake at extracellular acidification [2]: reduced | Cellular uptake at extracellular alkalization [2]: increased | Proton-gradient dependence of uptake [2]: yes | Cellular uptake after intracellular acidification [2]: decreased uptake | Inhibition by oxycodone (of the compound's uptake) [3]: yes (***) | Inhibition by oxycodone (of the compound's uptake) ([3]; listed as sumatriptan): inhibited the uptake of sumatriptan | Inhibition by pyrilamine (of the compound's uptake) [3]: yes (**) | Inhibition by pyrilamine (of the compound's uptake) ([3]; listed as sumatriptan): inhibited the uptake of sumatriptan | IC50 [4, 11]: 1460 ± 189 µM | Overall charge pH 7.4 [5]: Positive

CN(C)CCc1c[nH]c2ccc(C[C@H]3COC(=O)N3)cc12 [Zolmitriptan]
ER [6]: 2.48 | H^+/OC antiporter substrate [7]: did not appear to be H^+/OC antiporter substrate candidates | OCT1 substrate [8]: substrates of OCT1 | IC50 [4, 12]: 1730 ± 1210 µM | Overall charge pH 7.4 [5]: Positive | cLogD pH 7.4 ([9]; extracted from ChemSpider): 0.4

CNS(=O)(=O)CCc1ccc2[nH]cc(C3CCN(C)CC3)c2c1 [Naratriptan]
P-gp substrate [10]: substrates of P-gp | IC50 [4, 12]: 460 ± 41 µM | Overall charge pH 7.4 [5]: Positive | Strongest basic pKa [9]: 9.2

CN[C@@H]1CCc2[nH]c3ccc(C(N)=O)cc3c2C1 [Frovatriptan]
H^+/OC antiporter substrate [7]: did not appear to be H^+/OC antiporter substrate candidates | OCT1 substrate [8]: substrates of OCT1 | Apparent IC50 on [^3H]-pyrilamine uptake ([4]; [^3H]-pyrilamine 1 µCi/mL, 48 nM): did not exhibit sufficient inhibition | Overall charge pH 7.4 [5]: Positive | cLogD pH 7.4 [9]: − 1.5

CN(C)CCc1c[nH]c2ccc(CS(=O)(=O)N3CCCC3)cc12 [Almotriptan]
Concentration-dependent uptake (saturability) [1]: did not show saturable uptake | Association with H^+/OC antiporter [1]: (substrate) decent inhibitor | Apparent Km [1]: not saturable (in tested range) | Cellular uptake after intracellular alkalization [2]: decreased | Cellular uptake at extracellular acidification [2]: reduced | Cellular uptake at extracellular alkalization [2]: increased | Proton-gradient dependence of uptake [2]: yes | Cellular uptake after intracellular acidification [2]: statistically significant increase | Inhibition by oxycodone (of the compound's uptake) [3]: no | Inhibition by oxycodone (of the compound's uptake) ([3]; listed as almotriptan): did not inhibit | Inhibition by pyrilamine (of the compound's uptake) [3]: slightly inhibited; also recorded: yes (*) | IC50 [4, 12]: ~305 µM and 305 µM | Overall charge pH 7.4 [5]: Positive | Strongest basic pKa [9]: 9.6 | cLogD pH 7.4 ([9]; extracted from ChemSpider): 0.3

CN(C)CCc1c[nH]c2ccc(Cn3cncn3)cc12 [Rizatriptan]
P-gp substrate [10]: substrates of P-gp | IC50 [4, 12]: 719 ± 243 µM | Overall charge pH 7.4 [5]: Positive | cLogD pH 7.4 [9]: 0.04

COc1ccc(CN(CCN(C)C)c2ccccn2)cc1 [Pyrilamine]
Jmax [1]: 5.1 ± 0.7 nmol·min^−1·mg protein^−1 | Km ([1]; listed as pyrilamine): ~93 µM | Km [1]: 93 ± 17 µM | Cellular uptake after intracellular alkalization [2]: reduced cellular uptake | Cellular uptake at extracellular acidification [2]: reduced cellular uptake | Cellular uptake at extracellular alkalization [2]: increased cellular uptake | Cellular uptake after intracellular acidification [2]: increased cellular uptake | Time-dependent uptake in presence of 500 µM oxycodone ([3]; [^3H]-pyrilamine 48 nM): reduced | IC50 ([4]; [^3H]-pyrilamine 1 µCi/mL, 48 nM, listed as pyrilamine, read-out: Apparent IC50 on [^3H]-pyrilamine uptake): ~11 µM | IC50 [4, 12]: 11 ± 6 µM | Overall charge pH 7.4 [5]: Positive | cLogD pH 7.4 [9]: 1.1

COc1ccc2c3c1O[C@H]1C(=O)CC[C@@]4(O)[C@@H](C2)N(C)CC[C@]314 [Oxycodone]
Jmax [1]: 5.3 ± 1.0 nmol·min^−1·mg protein^−1 | Km ([1]; listed as oxycodone): ~130 µM | Km [1]: 130 ± 57 µM | Cellular uptake after intracellular alkalization [2]: reduced cellular uptake | Cellular uptake at extracellular acidification [2]: reduced cellular uptake | Cellular uptake at extracellular alkalization [2]: increased cellular uptake | Cellular uptake after intracellular acidification [2]: increased cellular uptake | Time-dependent uptake in presence of 1000 µM pyrilamine ([3]; oxycodone 500 µM): reduced | IC50 [4, 11]: 225 ± 57 µM | IC50 ([4]; read-out: Apparent IC50 on [^3H]-pyrilamine uptake, [^3H]-pyrilamine 1 µCi/mL, 48 nM, listed as oxycodone): ~225 µM | Overall charge pH 7.4 [5]: Positive | Strongest basic pKa [9]: 8.8 | cLogD pH 7.4 ([9]; extracted from ChemSpider): 0.5
